Starred links: 1 amine or outer side, 2 acyl side, 3 side chain; linkers in the order of their positions; H or OH if unused. Non-standard residues stand in square brackets, D forms with d. Residues, ends and D or L forms follow the SMILES beside them. *: point of attachment. X2 = CCN1C(=O)CC(SC[C@H](NC(C)=O)C(=O)NCCCOCCOCCOCCCN*)C1=O; Succinimide(1-Et,3-yl) = CCN1C(=O)CC(*)C1=O; Suc = O=C(CCC(=O)[*:2])[*:1]
Key:
Format in all cases: cell-based
[1] = biological target: T1, Mouse NMUR1-CTG (Mus musculus, UniProt O55040); experiment: FLIPR calcium mobilization assay, mouse NMUR1-CTG; set-up: expressed in transfected cells; host or cells: FLP-In CHO or HEK-293 FLP-In cells (pcDNA5); details: for IC50: functional data
T1 sequence (O55040 1-428): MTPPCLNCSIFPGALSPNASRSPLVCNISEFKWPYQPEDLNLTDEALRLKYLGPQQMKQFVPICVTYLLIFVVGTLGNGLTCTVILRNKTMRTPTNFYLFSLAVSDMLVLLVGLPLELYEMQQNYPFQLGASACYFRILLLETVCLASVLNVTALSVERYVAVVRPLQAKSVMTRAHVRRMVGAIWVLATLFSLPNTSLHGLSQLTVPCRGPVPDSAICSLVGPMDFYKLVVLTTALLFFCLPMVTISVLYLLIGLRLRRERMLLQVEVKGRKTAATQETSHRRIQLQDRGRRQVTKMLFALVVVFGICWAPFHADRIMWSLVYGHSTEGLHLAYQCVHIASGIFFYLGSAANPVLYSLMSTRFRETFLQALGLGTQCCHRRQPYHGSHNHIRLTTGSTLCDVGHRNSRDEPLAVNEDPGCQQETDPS
Description: (§1) Human, mouse or rat cDNAs encoding NMUR1 or NMUR2 (as described in Howard et al. Nature 406: 70-74 (2000) were subcloned in pcDNA5 (Invitrogen) and transfected into FLP-In CHO cells and HEK-293 FLP-In cells purchased from Invitrogen (Carlsbad, Calif.) using lipofectamine (Invitrogen). The Flp-In system allows integration and expression of a particular gene of interest at a specific genomic location utilizing the Flp recombinase from yeast. The transfected cells were selected by growth in medium containing 200 μg/mL hygromycin (Invitrogen). Populations were frozen at early passage numbers, and these stocks were used for further studies. Stable clones that expressed the mRNAs were identified functionally by FLIPR as well as by RT-PCR. […] Two different rodent NMUR1 cell lines were thus generated: one with the codon as predicted from the genomic databases and another cell line with an engineered methionine (ATG) as the start codon. Additionally, stable cell lines expressing the human receptors were generated in HEK-293/aeq17 cells which stably express the aequorin gene under the CMV promoter. The human NMUR2 cDNA was cloned into pcDNA3.1 and human NMUR1 was subcloned into pIRES-puro (Clontech, Mountain View, Calif.), after transfection cells were selected in media containing G418 and either hygromycin (NMUR2) or puromycin (NMUR1).
(§2) The NMU receptors signal primarily through Gαq/11 proteins; therefore calcium mobilization assays can be utilized for functional activity.
(§3) Stable cell lines expressing human and or rodent NMUR1 or human NMUR2 receptors were plated at a density of 12,000 cells per well overnight on poly-lysine coated 384-well black-walled plates. The following day, the media was removed from the plates and the cells were subsequently loaded with Fluo-3 (Molecular Probes), a calcium sensitive dye, diluted in FLIPR buffer (1× Hank's buffered saline containing 20 mM HEPES, 0.1% BSA, 2.5 mM probenecid (Sigma) and 1.6 mM TR40). All reagents are from Invitrogen unless otherwise noted. Peptide stocks were resuspended in DMSO at a stock concentration of 2 mM and diluted in FLIPR buffer on the day of the experiment to a 4 μM working stock solution.
(§4) After a 90 minute incubation at room-temperature, cell plates were loaded onto a FLIPR (Molecular Devices) to monitor cellular fluorescence (excitation=488 nm; emission=540 nm) before and after compound/peptide addition. Eight to twelve point dose responses were tested on NMUR-expressing cell lines using FLIPR with 1 μM peptide as the highest dose. The response after peptide addition was taken as the maximum fluorescence units minus the fluorescence immediately prior to stimulation for each well. EC50 values were calculated using GraphPad Prism (San Diego, Calif.) software.
(§5) In vitro responses of Neuromedin U receptor agonists (NMU1 to NMU25) in the FLIPR assay for human (Table 3), mouse (Table 4) and rat (Table 5) NMUR1 and NMUR2. EC50s are reported in nM values. Percent activity refers to the maximum response at 1 μM compared to the hNMU-25 response at the same concentration. NT=not tested.

[2] = biological target: rat NMUR2 (Rattus norvegicus, UniProt Q9ESQ4); experiment: FLIPR calcium mobilization assay, rat NMUR2; set-up: expressed in transfected cells; host or cells: FLP-In CHO or HEK-293 FLP-In cells (pcDNA5); details: for IC50: functional data, rat R2; for EC50: FLIPR
Description: as §1, §2, §3, §4, §5

[3] = biological target: hNMUR2 (Homo sapiens, UniProt Q9GZQ4); experiment: In vitro functional assay, HEK-hR2 cells; set-up: expressed in transfected cells; host or cells: FLP-In CHO or HEK-293 FLP-In cells (pcDNA5); HEK-293/aeq17 lines (pcDNA3.1) were also made; % Activity: concentration or dose not given beside the values
Description: as §1, §2, §3, §4
In addition to FLIPR, NMU receptor function can also be evaluated using an aequorin assay. Stable cell lines expressing the aequorin jelly fish gene can be used to report the activation of GPCRs by monitoring intracellular calcium mobilization. The objective is to identify compounds which specifically stimulate aequorin bioluminescence. Calcium-dependent luminescence is generated by the treatment of cells with the coelenterate luciferin, coelenterazine. Briefly, confluent monolayers of HEK-293/aeq 17 cells expressing hNMUR1 or hNMUR2 are “charged” with coelenterazine (Molecular Probes, Carlsbad, Calif.). Confluent T75 flasks are rinsed with media containing 300 μM glutathione and 0.1% FBS. Cells are incubated at 37° C. for one hour in 8 mL media, 0.1% FBS, 300 μM glutathione, and 20 μM coelenterazine. T75 flasks are subsequently rinsed with 6 mL ECB buffer (140 mM NaCl, 20 mM KCl, 20 mM HEPES, 5 mM glucose, 1 mM MgCl, 1 mM CaCl2, 0.1 mg/mL BSA, PH 7.3-7.4). Cells are removed from the flask in ECB buffer, pelleted, and resuspended at a density of 2×10^5 cells/mL. Agonists are added to the cells and activity is determined using a luminometer.

[4] = maximum response at 1 μM compared to hNMU-25, mouse NMUR1-CTG
[5] = maximum response at 1 μM compared to hNMU-25, rat NMUR2

Chain of hNMUR2 (Q9GZQ4 whole entry): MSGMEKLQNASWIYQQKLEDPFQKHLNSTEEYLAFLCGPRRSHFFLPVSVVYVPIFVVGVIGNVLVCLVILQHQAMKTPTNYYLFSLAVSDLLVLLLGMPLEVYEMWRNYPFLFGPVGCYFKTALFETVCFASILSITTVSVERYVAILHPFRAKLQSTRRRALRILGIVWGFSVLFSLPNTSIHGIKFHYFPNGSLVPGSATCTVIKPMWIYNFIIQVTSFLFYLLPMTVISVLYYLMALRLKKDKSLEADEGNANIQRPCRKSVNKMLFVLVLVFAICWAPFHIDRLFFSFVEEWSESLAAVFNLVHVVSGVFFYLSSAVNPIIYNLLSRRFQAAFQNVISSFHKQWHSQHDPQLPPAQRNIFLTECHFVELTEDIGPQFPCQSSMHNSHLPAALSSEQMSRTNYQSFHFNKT
Chain of rat NMUR2 (Q9ESQ4 whole entry): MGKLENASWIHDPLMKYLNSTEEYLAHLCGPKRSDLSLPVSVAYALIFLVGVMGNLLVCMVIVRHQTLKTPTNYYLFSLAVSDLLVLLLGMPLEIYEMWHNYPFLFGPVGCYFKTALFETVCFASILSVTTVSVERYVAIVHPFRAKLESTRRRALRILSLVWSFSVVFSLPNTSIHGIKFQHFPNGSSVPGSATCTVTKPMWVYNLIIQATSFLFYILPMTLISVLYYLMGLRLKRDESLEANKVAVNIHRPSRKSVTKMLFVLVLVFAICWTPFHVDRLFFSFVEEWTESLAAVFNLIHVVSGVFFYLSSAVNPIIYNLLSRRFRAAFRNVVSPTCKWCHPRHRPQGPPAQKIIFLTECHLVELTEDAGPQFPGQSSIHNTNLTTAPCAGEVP

| Compound | IC50 ([1]; mouse R1-CTG) | IC50 [2] | % Activity [1, 4] | % Activity [2, 5] | EC50 ([2]; rat NMUR2) | further results |
| --- | --- | --- | --- | --- | --- | --- |
| H-FRVDEEFQSPFASQSRGYFLFRPRN-NH2 [hNMU-25, reference compound] | 2.9 nM | 1.6 nM |  |  |  | % Activity ([3]; Table 9, HEK-hR2, functional): 100%; EC50 ([3]; Table 9, HEK-hR2, functional): 1.5 nM |
| CC(C)C[C@@H](NC(=O)[C@H](Cc1ccccc1)NC(=O)[C@H](Cc1ccc(O)cc1)NC(=O)CNC(=O)[C@H](CCCNC(=N)N)NC(=O)[C@H](CO)NC(=O)[C@H](CCC(N)=O)NC(=O)[C@H](CO)NC(=O)[C@H](C)NC(=O)[C@H](Cc1ccccc1)NC(=O)[C@@H]1CCCN1C(=O)[C@H](CO)NC(=O)[C@H](CCC(N)=O)NC(=O)[C@H](Cc1ccccc1)NC(=O)[C@H](CCC(=O)O)NC(=O)[C@H](CCC(=O)O)NC(=O)[C@H](CC(=O)O)NC(=O)[C@@H](NC(=O)[C@H](CCCNC(=N)N)NC(=O)[C@@H](N)Cc1ccccc1)C(C)C)C(=O)N[C@@H](Cc1c[nH]c2ccccc12)C(=O)N[C@@H](CCCNC(=N)N)C(=O)N1CCC[C@H]1C(=O)N[C@@H](CCCNC(=N)N)C(=O)N[C@@H](CC(N)=O)C(N)=O [Agonist H] (H-FRVDEEFQSPFASQSRGYF[dL]WRPRN-NH2; N-terminus assumed) | 66 nM | > 1000 nM |  |  |  | % Activity ([1]; functional, mouse R1-CTG, relative to native hNMU responses): 77%; % Activity ([2]; functional, rat R2, relative to native hNMU responses): 42%; % Activity ([3]; Table 8, HEK-hR2, functional): 0%; IC50 ([3]; Table 8, HEK-hR2, functional): > 1000 nM |
| CCN1C(=O)CC(SC[C@H](NC(C)=O)C(=O)N[C@@H](Cc2ccccc2)C(=O)N[C@@H](CCC(N)=O)C(=O)N[C@@H](CO)C(=O)N2CCC[C@H]2C(=O)N[C@@H](Cc2ccccc2)C(=O)N[C@@H](C)C(=O)N[C@@H](CO)C(=O)N[C@@H](CCC(N)=O)C(=O)N[C@@H](CO)C(=O)N[C@@H](CCCNC(=N)N)C(=O)NCC(=O)N[C@@H](Cc2ccc(O)cc2)C(=O)N[C@@H](Cc2ccccc2)C(=O)N[C@@H](CC(C)C)C(=O)N[C@@H](Cc2ccccc2)C(=O)N[C@@H](CCCNC(=N)N)C(=O)N2CCC[C@H]2C(=O)N[C@@H](CCCNC(=N)N)C(=O)N[C@@H](CC(N)=O)C(N)=O)C1=O (some centres unmarked) [NMU19] (Ac-C(Succinimide(1-Et,3-yl))FQSPFASQSRGYFLFRPRN-NH2) |  |  | 110.8% | 100% |  |  |
| Ac-C2FQSPFASQSRGYFLFRPRN-CONH2 ({Ac-C(PEG 40 kDa)}-FQSPFASQSRGYFLFRPRN-NH2; not fully specified; printed as Ac-C2FQSPFASQSRGYFLFRPRN-CONH2) [NMU20, C2 = Cys(PEG)240 kDa] |  |  | 65.4% |  | 16.9 nM | EC50 ([1]; FLIPR, mouse NMUR1-CTG): 480 nM |
| CCN1C(=O)CC(SC[C@H](NC(C)=O)C(=O)N[C@@H](Cc2ccccc2)C(=O)N[C@@H](CCCNC(=N)N)C(=O)N[C@H](C(=O)N[C@@H](CC(=O)O)C(=O)N[C@@H](CCC(=O)O)C(=O)N[C@@H](CCC(=O)O)C(=O)N[C@@H](Cc2ccccc2)C(=O)N[C@@H](CCC(N)=O)C(=O)N[C@@H](CO)C(=O)N2CCC[C@H]2C(=O)N[C@@H](Cc2ccccc2)C(=O)N[C@@H](C)C(=O)N[C@@H](CO)C(=O)N[C@@H](CCC(N)=O)C(=O)N[C@@H](CO)C(=O)N[C@@H](CCCNC(=N)N)C(=O)NCC(=O)N[C@@H](Cc2ccc(O)cc2)C(=O)N[C@@H](Cc2ccccc2)C(=O)N[C@@H](CC(C)C)C(=O)N[C@@H](Cc2ccccc2)C(=O)N[C@@H](CCCNC(=N)N)C(=O)N2CCC[C@H]2C(=O)N[C@@H](CCCNC(=N)N)C(=O)N[C@@H](CC(N)=O)C(N)=O)C(C)C)C1=O (some centres unmarked) [NMU8] (Ac-C(Succinimide(1-Et,3-yl))FRVDEEFQSPFASQSRGYFLFRPRN-NH2) |  |  | 100% | 94.7% |  |  |
| CCN1C(=O)CC(SC[C@H](NC(C)=O)C(=O)NCCCOCCOCCOCCCNC(=O)CCC(=O)N[C@@H](Cc2ccccc2)C(=O)N[C@@H](CC(C)C)C(=O)N[C@@H](Cc2ccccc2)C(=O)N[C@@H](CCCNC(=N)N)C(=O)N2CCC[C@H]2C(=O)N[C@@H](CCCNC(=N)N)C(=O)N[C@@H](CC(N)=O)C(N)=O)C1=O (some centres unmarked) [NMU15, Ac-C1-Ttds-FLFRPRN-CONH2] ({X2-Suc}-FLFRPRN-NH2) |  |  | 100% | 100% | 2.2 nM |  |

Reference: patent publication US20100075907A1, “NEUROMEDIN U RECEPTOR AGONISTS AND USES THEREOF” (priority 2006, published 2010)
